Experimental data reported in US20240174625A1, “COMPOSITIONS AND METHODS FOR TREATING TAUOPATHIES” (The Regents of the University of California, priority 2021, published 2024).

Experiments:
NPEPPS = target: T1, NPEPPS (Homo sapiens, UniProt P55786); test: Cell-based NPEPPS activity assay (Q-AMC fluorescence); details: log10 transformed; EC50 = concentration that elevates 50% NPEPPS activity (150% of DMSO baseline); HEK293T cells
T1 construct: endogenous in cells; host or cells: HEK293T
Description: HEK293T cells (AATC) were maintained in a complete media containing DMEM (Gibco 11995-065) in the presence of 10% fetal bovine serum (FBS, Gibco 10082147), […] penicillin and 50 μg/ml streptomycin (Gibco 15140163) at 37° C. with 5% CO2. NPEPPS activity assay was conducted in a fresh-prepared minimal medium containing essential amino acids, vitamin, AlbuMax (Invitrogen 11021-029) in 1×HBS buffer. Black wall, clear bottom 384-well assay plates (Greiner EK-30092) were coated with poly-L-ornithine (0.1 mg/ml, Sigma P3655) overnight and washed once with 1×PBS. 15 μl minimal medium was then added to each well. 250 nL of compounds dissolved in OmniSolve methylsulfoxide (dimethyl sulfoxide, DMSO, Sigma MX1456P) were pinned to each well via Biomek FX^P Liquid Handling Automation (Beckman Coulter) from compound source plates, i.e., either pre-made compound libraries or JMM compounds (20-step, 2-fold dilution) dissolved in OmniSolve DMSO prepared via Biomek automation in 384-well clear V-bottom polypropylene microplates (ThermoScientific 50-823-639). Cells were harvested, resuspended in minimal medium, and seeded at 16,500 cells/15 μl/well in the 384-well assay plates. 24 hrs later, 30 μl 200 μM H-Gln-AMC hydrobromide salt (Q-AMC, Bachem #I-1175) in 1×HBS containing 0.1% DMSO was added into each well. The fluorescent signal at excitation/emission wavelengths of 360/460 nm was measured immediately upon Q-AMC addition and 3 hrs post-Q-AMC. The change in fluorescence is measured as a readout of NPEPPS activity.
To identify small molecules that either increase NPEPPS levels or NPEPPS activity, a cell-based NPEPPS activity assay amenable to high-throughput screening (HTS) by adapting a fluorescent peptidase activity assay^2 was developed. Since NPEPPS is one of the only aminopeptidases capable of cleaving glutamine-peptide bonds^3 and the major aminopeptidase responsible for degradation of poly-glutamine sequences in the brain^4, a fluorogenic compound, glutamine-7-amino-4-methylcoumarin (Q-AMC), was selected as a substrate to measure NPEPPS activity. The peptide bond of Q-AMC is hydrolyzed by NPEPPS to release glutamine and a fluorescent product, 7-amino-4-methylcoumarin (AMC), when Q-AMC is added directly to the cell culture media. This change in fluorescence is measured as a readout of aminopeptidase activity (FIG. 2A). Overexpression of NPEPPS in HEK293T cells results in a significant increase in fluorescence, whereas knock-down or chemical inhibition of NPEPPS decrease fluorescence change (FIG. 2B-D), validating that the changes in fluorescence observed in the Q-AMC-based assay directly correlate with changes in NPEPPS activity. A high-throughput (HTS) screen (201,845 compounds) was conducted at the UCLA MSSR core (FIG. 2E). Follow-up assays and chemical clustering identified three series of compounds with distinct chemical clusters (FIG. 2F).
(§1) To investigate the effects of JMM compounds that enhance NPEPPS activity and assess their cellular toxicity, 139 compounds in the JMM series (i.e., JMM001-JMM139) were tested in dose responses (20-step, 2-fold dilution) using NPEPPS activity and viability assays in HEK293T cells. 76 compounds harboring different modifications produce concentration-dependent enhancement on NPEPPS activity compared to DMSO control (FIG. 4). […] A therapeutic index (TI, a ratio of IC50 over EC50) is used to evaluate the relative safety profiles of the compounds. […] 16 JMM compounds show both improved potency and reduced toxicity (EC50<10 μM and TI>10, Table 1).

HEK293T cells = test: Cell viability assay (CellTiter Glo); format: cell-based, human; details: for IC50: Homo sapiens, HEK-293T, log10 transformed, IC50 = concentration that suppresses 50% cell viability, HEK293T cells; for Therapeutic index: ratio of IC50 (cell viability) over EC50 (NPEPPS activity)
Description: HEK293T cells (AATC) were maintained in complete media and cell viability assay was conducted in a fresh-prepared minimal medium containing essential amino acids, vitamin, AlbuMax (Invitrogen 11021-029) in 1×HBS buffer. White 384-well assay plates (Greiner EK-30080) were coated with poly-L-ornithine (0.1 mg/ml) overnight and washed once with 1×PBS. 15 μl minimal medium was then added to each well. 250 nl of compounds dissolved in OmniSolve DMSO were pinned to each well via Biomek FX^P Liquid Handling Automation from compound source plates. Cells were harvested, resuspended in minimal medium, and seeded at 16,500 cells/15 μl/well in the 384-well assay plates. 24 hrs later, 25 μl/well CellTiter Glo reagent (Promega G7572) was added into each well, and luminescence (0.5 second integration time) was acquired following manufacture's protocol. Luminescence count normalized to DMSO control is used as a readout of cell viability.
as §1

T1 sequence (P55786 whole entry): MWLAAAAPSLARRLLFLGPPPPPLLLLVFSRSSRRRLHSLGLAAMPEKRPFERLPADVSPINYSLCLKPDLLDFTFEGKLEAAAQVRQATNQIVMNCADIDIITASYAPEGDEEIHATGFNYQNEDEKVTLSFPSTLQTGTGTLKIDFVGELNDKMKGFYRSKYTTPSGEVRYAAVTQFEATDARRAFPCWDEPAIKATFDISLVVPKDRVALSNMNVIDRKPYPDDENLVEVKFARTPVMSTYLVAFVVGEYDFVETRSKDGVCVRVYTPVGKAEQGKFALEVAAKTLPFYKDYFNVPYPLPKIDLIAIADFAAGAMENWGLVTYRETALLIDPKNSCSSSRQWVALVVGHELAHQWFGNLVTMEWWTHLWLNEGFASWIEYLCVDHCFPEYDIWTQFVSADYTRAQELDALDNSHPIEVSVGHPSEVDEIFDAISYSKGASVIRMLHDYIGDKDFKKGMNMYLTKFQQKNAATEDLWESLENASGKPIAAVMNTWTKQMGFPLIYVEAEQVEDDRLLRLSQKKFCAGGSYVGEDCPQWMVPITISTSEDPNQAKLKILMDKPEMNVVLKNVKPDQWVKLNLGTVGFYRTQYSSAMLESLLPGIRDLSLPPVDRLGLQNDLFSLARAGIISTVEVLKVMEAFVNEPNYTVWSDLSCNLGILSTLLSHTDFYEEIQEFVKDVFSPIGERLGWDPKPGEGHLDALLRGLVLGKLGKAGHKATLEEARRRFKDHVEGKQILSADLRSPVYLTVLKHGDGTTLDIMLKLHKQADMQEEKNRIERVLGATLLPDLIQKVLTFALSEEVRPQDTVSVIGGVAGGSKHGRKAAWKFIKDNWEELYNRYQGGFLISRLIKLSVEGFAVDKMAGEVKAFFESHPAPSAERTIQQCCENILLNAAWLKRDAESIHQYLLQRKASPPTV

SMILES | EC50 (NPEPPS) [µM] | IC50 (HEK293T cells) [µM] | Therapeutic index (HEK293T cells)
Fc1ccc(COc2ccc(CNc3nsc4ccc(OCc5ccccc5)cc34)cc2)c(F)c1 [JMM111, 5-(Benzyloxy)-N-(4-((2,4-difluorobenzyl)oxy)benzyl)benzo[d]isothiazol-3-amine] | 10.2 | 27.5 | 2.74
N#Cc1ccc(CNc2nsc3ccccc23)cc1 [JMM044] | 63.1 | 417 | 6.68
FC(F)(F)Sc1ccc(CNc2nsc3ccc(OCc4ccccc4)cc23)cc1 [JMM096] | 10.2 | 63.1 | 6.09
COc1ccc2snc(N(C)Cc3ccc(OCc4ccccc4)cc3)c2c1 [JMM095] | 7.76 | 72.4 | 9.25
COc1ccc(CN(Cc2ccc(C(F)(F)F)cc2)c2nsc3ccccc23)cc1OC [JMM069] | 17.8 | 1510 | 84.99
Clc1ccc2snc(NCc3ccc(OCc4ccccc4)cc3)c2c1 [JMM129, N-(4-(Benzyloxy)benzyl)-5-chlorobenzo[d]isothiazol-3-amine] | 27.5 | 661 | 24.01
CC(Nc1nsc2ccccc12)c1cccc2ccccc12 (stereo not drawn) [JMM080] | 9.33 | 105 | 11.09
C[C@H](Nc1nsc2ccccc12)c1cccc2ccccc12 [JMM101] | 70.8 | 407 | 5.74
FC(F)(F)c1ccc(CN(CC2CC2)c2nsc3ccccc23)cc1 [JMM133, N-(Cyclopropylmethyl)-N-(4-(trifluoromethyl)benzyl)benzo[d]isothiazol-3-amine] | 5.5 | 20.9 | 3.78
FC(F)(F)c1ccc(COc2ccc3snc(NCc4ccc(OCc5ccccc5)cc4)c3c2)cc1 [JMM131, N-(4-(Benzyloxy)benzyl)-5-((4-(trifluoromethyl)benzyl)oxy)benzo[d]isothiazol-3-amine] | 61.7 | 355 | 5.78
c1ccc(COc2ccc3snc(NCc4ccc(-c5ccccc5)cc4)c3c2)cc1 [JMM105, N-([1,1′-Biphenyl]-4-ylmethyl)-5-(benzyloxy)benzo[d]isothiazol-3-amine] | 26.3 | 53.7 | 2.02
c1ccc(COc2ccc3snc(NCc4ccc(OCc5cccs5)cc4)c3c2)cc1 [JMM132, 5-(Benzyloxy)-N-(4-(thiophen-2-ylmethoxy)benzyl)benzo[d]isothiazol-3-amine] | 5.13 | 12 | 2.36
CN(Cc1ccc(SC(F)(F)F)cc1)c1nsc2ccc(OCc3ccccc3)cc12 [JMM098] | 18.6 | 107 | 5.68
c1ccc2c(NCc3ccncc3)nsc2c1 [JMM012] | 148 | 126 | 0.86
FC(F)(F)c1ccc(CNc2nsc3ccc(OCc4ccc(C(F)(F)F)cc4)cc23)cc1 [JMM137, N-(4-(Trifluoromethyl)benzyl)-5-((4-(trifluoromethyl)benzyl)oxy)benzo[d]isothiazol-3-amine] | 11.7 | 38.9 | 3.30
FC(F)(F)c1ccc(CN(Cc2ccccc2)c2nsc3ccccc23)cc1 [JMM072] | 13.5 | 155 | 11.52
Fc1cccc2c(NC(c3ccccc3)c3ccccc3)nsc12 [JMM057] | 31.6 | 151 | 4.85

SMILES | EC50 (NPEPPS) [µM] | IC50 (HEK293T cells) [µM] | Therapeutic index (HEK293T cells)
COc1ccc(CN(C)c2nsc3ccccc23)cc1OC [JMM068] | 58.9 | 132 | 2.22
c1cc(CNc2nsc3ccccc23)c2cc[nH]c2c1 [JMM030] | 219 | 257 | 1.16
FC(F)(F)c1ccc2snc(NCc3ccc(OCc4ccccc4)cc3)c2c1 [JMM134, N-(4-(Benzyloxy)benzyl)-5-(trifluoromethyl)benzo[d]isothiazol-3-amine] | 13.8 | 257 | 18.60
Clc1ccc(CNc2nsc3ccc(OCc4ccccc4)cc23)cc1Cl [JMM090] | 22.4 | 30.9 | 1.39
c1ccc(COc2ccc3snc(NCc4ccc(OCC5CCC5)cc4)c3c2)cc1 [JMM128, 5-(Benzyloxy)-N-(4-(cyclobutylmethoxy)benzyl)benzo[d]isothiazol-3-amine] | 4.47 | 9.55 | 2.12
Cc1ccc(CNc2nsc3ccccc23)cc1 [JMM023] | 51.3 | 229 | 4.47
FC(F)(F)c1ccc(CNc2nsc3ccc(Cl)cc23)cc1 [JMM138, 5-Chloro-N-(4-(trifluoromethyl)benzyl)benzo[d]isothiazol-3-amine] | 22.9 | 25.1 | 1.10
CN(Cc1ccc(OCc2ccc(Cl)cc2)cc1)c1nsc2ccc(OCc3ccccc3)cc12 [JMM108, 5-(Benzyloxy)-N-(4-((4-chlorobenzyl)oxy)benzyl)-N-methylbenzo[d]isothiazol-3-amine] | 5.62 | 40.7 | 7.13
COc1ccc(CNc2n[nH]c3ccccc23)cc1OC [JMM047] | 60.3 | 170 | 2.85
c1ccc(CNc2ccc(CNc3nsc4ccc(OCc5ccccc5)cc34)cc2)cc1 [JMM122, N-(4-(Benzylamino)benzyl)-5-(benzyloxy)benzo[d]isothiazol-3-amine] | 4.68 | 324 | 69.07
Fc1cccc2c(NCc3ccc(C(F)(F)F)cc3)nsc12 [JMM027] | 53.7 | 52.5 | 0.98
COc1ccc2snc(NCc3ccc(OCc4ccccc4)cc3)c2c1 [JMM094] | 37.2 | 178 | 4.80
Fc1ccc(COc2ccc(CNc3nsc4ccc(OCc5ccccc5)cc34)cc2)cc1 [JMM117, 5-(Benzyloxy)-N-(4-((4-fluorobenzyl)oxy)benzyl)benzo[d]isothiazol-3-amine] | 57.5 | 110 | 1.88
COc1ccc(CNc2nsc3c(F)cccc23)cc1OC [JMM042] | 5.75 | 58.9 | 10.41
O=[N+]([O-])c1ccc(CNc2nsc3ccccc23)cc1 [JMM043] | 81.3 | 309 | 3.79
COC(=O)c1ccc(CNc2nsc3ccccc23)cc1 [JMM024] | 158 | 437 | 2.76
COc1ccc(COc2nsc3ccccc23)cc1OC [JMM104] | 105 | 63.1 | 0.60
